Patent publication US20230073777A1, “CYCLIC-AMP RESPONSE ELEMENT BINDING PROTEIN (CBP) AND/OR ADENOVIRAL E1A BINDING PROTEIN OF 300 KDA (P300) DEGRADATION COMPOUNDS AND METHODS OF USE” (CULLGEN (SHANGHAI), INC., priority 2019, published 2023)

How the values were obtained:
LNCaP cells = assay: LNCaP cell viability assay (CellTiter-Glo); assay type: cell-based; conditions: for IC50: Homo sapiens, 72 h, LNCaP prostate cancer cell viability inhibition, 3 days, CellTiter-Glo (Table 2)
Procedure: LNCaP cells seeded in 96-well plates were treated with 10 μM GNE-781 or selected bivalent compounds, i.e. P-001, P-002, and P-019, following a 12-point 3-fold serial dilution. Three days after treatment, cell viability was determined using the CellTiter-Glo kit (Promega) following manufacturer's instructions. Cell viability was normalized to the mean values of 3 replicates of untreated cells. Dose-dependent response was analyzed following the least-squares non-linear regression method using the GraphPad Prism 5.0 software.
LNCaP cells were treated with GNE-781 or selected bivalent compounds for 3 days at indicated concentrations following a 3-fold serial dilution.
Cells were seeded at a density of 5000 cells per well in 96-well assay plates and treated with test compounds following a 12-point 3-fold serial dilution. Three days later, cell viability was determined using the CellTiter-Glo assay kit according to the manufacturer's instructions. The dose-response curves were determined and IC50 values were calculated using the GraphPad Prism software following a nonlinear regression (least squares fit) method.

P300 = P300 (Homo sapiens, UniProt Q09472); assay: Immunoblotting of P300 protein levels in LNCaP or 22RV1 cells; assay type: cell-based; parameters: LNCaP or 22RV1 cells that express CBP/P300 proteins were treated with GNE-781 or the bivalent compounds; endogenous in cells; host or cells: LNCaP (clone FGC) or 22RV1 cells; conditions: percentage of inhibition of p300 at 10 nM (Table 2); read-out: Degradation (10 nM)
P300, sequence (Q09472 whole entry): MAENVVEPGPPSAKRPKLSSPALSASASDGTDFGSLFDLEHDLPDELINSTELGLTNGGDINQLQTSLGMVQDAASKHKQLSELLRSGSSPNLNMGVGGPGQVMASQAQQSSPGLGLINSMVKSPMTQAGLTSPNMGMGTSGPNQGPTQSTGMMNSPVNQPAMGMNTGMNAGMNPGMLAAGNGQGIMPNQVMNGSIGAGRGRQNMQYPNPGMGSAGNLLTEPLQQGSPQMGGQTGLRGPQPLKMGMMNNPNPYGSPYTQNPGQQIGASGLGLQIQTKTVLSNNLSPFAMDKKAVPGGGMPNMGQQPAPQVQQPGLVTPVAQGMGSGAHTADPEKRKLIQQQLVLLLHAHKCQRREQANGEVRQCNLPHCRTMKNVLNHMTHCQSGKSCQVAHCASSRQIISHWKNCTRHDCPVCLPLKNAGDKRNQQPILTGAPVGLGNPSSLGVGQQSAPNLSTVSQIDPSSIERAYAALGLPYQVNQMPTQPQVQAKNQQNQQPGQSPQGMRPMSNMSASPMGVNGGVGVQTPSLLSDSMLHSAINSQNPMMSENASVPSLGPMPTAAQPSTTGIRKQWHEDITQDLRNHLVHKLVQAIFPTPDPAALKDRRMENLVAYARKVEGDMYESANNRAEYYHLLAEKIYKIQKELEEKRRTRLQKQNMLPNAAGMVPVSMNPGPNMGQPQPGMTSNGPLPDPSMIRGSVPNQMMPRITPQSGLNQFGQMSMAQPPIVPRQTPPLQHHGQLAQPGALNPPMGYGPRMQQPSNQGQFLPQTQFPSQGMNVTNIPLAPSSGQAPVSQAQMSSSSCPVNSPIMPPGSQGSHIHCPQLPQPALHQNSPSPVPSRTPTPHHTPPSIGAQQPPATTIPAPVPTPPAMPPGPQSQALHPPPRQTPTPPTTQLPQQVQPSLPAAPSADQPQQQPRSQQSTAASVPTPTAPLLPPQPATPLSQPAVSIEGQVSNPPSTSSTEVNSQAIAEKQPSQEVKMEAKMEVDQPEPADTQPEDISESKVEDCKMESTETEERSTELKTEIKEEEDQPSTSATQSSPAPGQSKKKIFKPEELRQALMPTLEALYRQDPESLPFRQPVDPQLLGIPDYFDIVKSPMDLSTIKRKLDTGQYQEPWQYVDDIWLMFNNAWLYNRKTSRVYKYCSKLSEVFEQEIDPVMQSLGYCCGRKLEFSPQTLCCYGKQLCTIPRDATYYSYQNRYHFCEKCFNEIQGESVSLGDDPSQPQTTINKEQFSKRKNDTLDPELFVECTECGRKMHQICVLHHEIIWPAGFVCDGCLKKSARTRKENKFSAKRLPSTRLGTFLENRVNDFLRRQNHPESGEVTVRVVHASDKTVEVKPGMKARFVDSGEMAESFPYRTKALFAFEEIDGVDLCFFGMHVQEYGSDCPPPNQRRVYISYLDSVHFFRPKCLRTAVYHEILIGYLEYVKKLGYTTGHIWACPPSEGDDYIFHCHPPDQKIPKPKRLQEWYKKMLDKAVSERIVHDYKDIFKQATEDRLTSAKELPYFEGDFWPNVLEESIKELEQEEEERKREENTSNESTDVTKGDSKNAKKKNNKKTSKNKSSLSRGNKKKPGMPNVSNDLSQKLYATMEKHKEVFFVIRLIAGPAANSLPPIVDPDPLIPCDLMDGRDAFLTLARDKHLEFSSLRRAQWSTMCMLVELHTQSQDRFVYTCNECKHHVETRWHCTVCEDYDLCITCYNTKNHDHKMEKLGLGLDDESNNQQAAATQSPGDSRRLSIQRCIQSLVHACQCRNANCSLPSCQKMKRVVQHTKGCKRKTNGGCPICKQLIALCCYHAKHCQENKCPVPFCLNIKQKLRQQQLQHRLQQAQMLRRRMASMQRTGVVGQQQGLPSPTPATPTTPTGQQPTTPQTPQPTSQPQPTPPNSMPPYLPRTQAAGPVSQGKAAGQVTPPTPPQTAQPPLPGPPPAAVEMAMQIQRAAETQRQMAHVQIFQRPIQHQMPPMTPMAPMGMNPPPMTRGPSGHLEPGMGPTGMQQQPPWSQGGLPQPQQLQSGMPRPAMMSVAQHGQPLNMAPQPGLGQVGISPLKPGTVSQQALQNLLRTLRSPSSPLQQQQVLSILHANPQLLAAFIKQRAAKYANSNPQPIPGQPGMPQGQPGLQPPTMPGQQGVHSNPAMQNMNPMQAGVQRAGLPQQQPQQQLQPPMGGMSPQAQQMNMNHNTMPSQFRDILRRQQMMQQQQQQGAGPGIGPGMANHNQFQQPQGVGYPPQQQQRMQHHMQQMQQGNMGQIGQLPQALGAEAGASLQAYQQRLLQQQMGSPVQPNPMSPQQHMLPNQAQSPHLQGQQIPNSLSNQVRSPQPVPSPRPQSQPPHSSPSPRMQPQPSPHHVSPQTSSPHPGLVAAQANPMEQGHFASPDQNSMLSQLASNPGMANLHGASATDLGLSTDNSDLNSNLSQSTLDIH
Procedure: Specific exemplary bivalent compounds were characterized in LNCaP or 22RV1 cells. LNCaP or 22RV1 cells that express CBP/P300 proteins were treated with GNE-781 or the bivalent compounds disclosed herein (P-001 to P-174) for indicated hours. Cells were collected, lysed and subject to immunoblotting using an antibody specific to P300 or CBP proteins. Tubulin or vinculin was included as the loading control. DMSO was used as the negative control.
Cultured cells or tissue chunks were washed with cold PBS once and lysed in cold RIPA buffer supplemented with protease inhibitors and phosphatase inhibitors (Beyotime Biotechnology). The solutions were then incubated at 4° C. for 30 minutes with gentle agitation to fully lyse cells. Cell lysates were centrifuged at 13,000 rpm for 10 minutes at 4° C. and pellets were discarded. Total protein concentrations in the lysates were determined by BCA assays (Beyotime Biotechnology). Cell lysates were mixed with Laemmli loading buffer to 1× and heated at 99° C. for 5 min. Proteins were resolved on SDS-PAGE and visualized by chemiluminescence. Images were taken by a ChemiDoc MP Imaging system (Bio-Rad). Protein bands were quantitated using the accompanied software provided by Bio-Rad.

IC50 (LNCaP cells)	inhibition at 0.01 µM (P300)	Compound	viability of LNCaP cells (LNCaP cells; from 10 μM, 12-point 3-fold serial dilution, 3 days (FIG. 4))
152 nM	20 to 50%	CNC(=O)N1CCc2c(c(N3CCCc4cc(-c5cnn(C)c5)c(C(F)F)cc43)nn2C2CCN(C(=O)CCOCCOCCOCCNc3ccc4c(c3)C(=O)N(C3CCC(=O)NC3=O)C4=O)CC2)C1 (stereo not shown) [P-010, 3-(7-(Difluoromethyl)-6-(1-methyl-1H-pyrazol-4-yl)-3,4-dihydroquinolin-1(2H)-yl)-1-(1-(3-(2-(2-(2-((2-(2,6-dioxopiperidin-3-yl)-1,3-dioxoisoindolin-5-yl)amino)ethoxy)ethoxy)ethoxy)propanoyl)piperidin-4-yl)-N-methyl-1,4,6,7-tetrahydro-5H-pyrazolo[4,3-c]pyridine-5-carboxamide]	
163 nM	20 to 50%	CNC(=O)N1CCc2c(c(N3CCCc4cc(-c5cnn(C)c5)c(C(F)F)cc43)nn2C2CCN(C(=O)CCOCCOCCOCCOCCNc3ccc4c(c3)C(=O)N(C3CCC(=O)NC3=O)C4=O)CC2)C1 (stereo not shown) [P-011, 3-(7-(Difluoromethyl)-6-(1-methyl-1H-pyrazol-4-yl)-3,4-dihydroquinolin-1(2H)-yl)-1-(1-(1-((2-(2,6-dioxopiperidin-3-yl)-1,3-dioxoisoindolin-5-yl)amino)-3,6,9,12-tetraoxapentadecan-15-oyl)piperidin-4-yl)-N-methyl-1,4,6,7-tetrahydro-5H-pyrazolo[4,3-c]pyridine-5-carboxamide]	
197 nM	< 20%	CNC(=O)N1CCc2c(c(N3CCCc4cc(-c5cnn(C)c5)c(C(F)F)cc43)nn2C2CCN(C(=O)CCOCCOCCOCCOCCOCCNc3ccc4c(c3)C(=O)N(C3CCC(=O)NC3=O)C4=O)CC2)C1 (stereo not shown) [P-012, 3-(7-(Difluoromethyl)-6-(1-methyl-1H-pyrazol-4-yl)-3,4-dihydroquinolin-1(2H)-yl)-1-(1-(1-((2-(2,6-dioxopiperidin-3-yl)-1,3-dioxoisoindolin-5-yl)amino)-3,6,9,12,15-pentaoxaoctadecan-18-oyl)piperidin-4-yl)-N-methyl-1,4,6,7-tetrahydro-5H-pyrazolo[4,3-c]pyridine-5-carboxamide]	
> 10000 nM	< 20%	CNC(=O)N1CCc2c(c(N3CCCc4cc(-c5cnn(C)c5)c(C(F)F)cc43)nn2C2CCN(C(=O)CCNc3cccc4c3C(=O)N(C3CCC(=O)NC3=O)C4=O)CC2)C1 (stereo not shown) [P-014, 3-(7-(Difluoromethyl)-6-(1-methyl-1H-pyrazol-4-yl)-3,4-dihydroquinolin-1(2H)-yl)-1-(1-(3-((2-(2,6-dioxopiperidin-3-yl)-1,3-dioxoisoindolin-4-yl)amino)propanoyl)piperidin-4-yl)-N-methyl-1,4,6,7-tetrahydro-5H-pyrazolo[4,3-c]pyridine-5-carboxamide]	
7.3 nM	> 80%	CNC(=O)N1CCc2c(c(N3CCCc4cc(-c5cnn(C)c5)c(C(F)F)cc43)nn2C2CCN(C(=O)CCCNc3cccc4c3C(=O)N(C3CCC(=O)NC3=O)C4=O)CC2)C1 (stereo not shown) [P-015, 3-(7-(difluoromethyl)-6-(1-methyl-1H-pyrazol-4-yl)-3,4-dihydroquinolin-1(2H)-yl)-1-(1-(4-((2-(2,6-dioxopiperidin-3-yl)-1,3-dioxoisoindolin-4-yl)amino)butanoyl)piperidin-4-yl)-N-methyl-1,4,6,7-tetrahydro-5H-pyrazolo[4,3-c]pyridine-5-carboxamide]	
3040 nM	< 20%	CNC(=O)N1CCc2c(c(N3CCCc4cc(-c5cnn(CC(=O)NCCNc6ccc7c(c6)C(=O)N(C6CCC(=O)NC6=O)C7=O)c5)c(C(F)F)cc43)nn2C2CCOCC2)C1 (stereo not shown) [P-016, 3-(7-(Difluoromethyl)-6-(1-(2-((2-((2-(2,6-dioxopiperidin-3-yl)-1,3-dioxoisoindolin-5-yl)amino)ethyl)amino)-2-oxoethyl)-1H-pyrazol-4-yl)-3,4-dihydroquinolin-1(2H)-yl)-N-methyl-1-(tetrahydro-2H-pyran-4-yl)-1,4,6,7-tetrahydro-5H-pyrazolo[4,3-c]pyridine-5-carboxamide]	
99.2 nM	< 20%	CNC(=O)N1CCc2c(c(N3CCCc4cc(-c5cnn(CC(=O)NCCCNc6ccc7c(c6)C(=O)N(C6CCC(=O)NC6=O)C7=O)c5)c(C(F)F)cc43)nn2C2CCOCC2)C1 (stereo not shown) [P-017, 3-(7-(Difluoromethyl)-6-(1-(2-((3-((2-(2,6-dioxopiperidin-3-yl)-1,3-dioxoisoindolin-5-yl)amino)propyl)amino)-2-oxoethyl)-1H-pyrazol-4-yl)-3,4-dihydroquinolin-1(2H)-yl)-N-methyl-1-(tetrahydro-2H-pyran-4-yl)-1,4,6,7-tetrahydro-5H-pyrazolo[4,3-c]pyridine-5-carboxamide]	
59.4 nM	20 to 50%	CNC(=O)N1CCc2c(c(N3CCCc4cc(-c5cnn(CC(=O)NCCCCNc6ccc7c(c6)C(=O)N(C6CCC(=O)NC6=O)C7=O)c5)c(C(F)F)cc43)nn2C2CCOCC2)C1 (stereo not shown) [P-018]	
14.7 nM	50 to 80%	CNC(=O)N1CCc2c(c(N3CCCc4cc(-c5cnn(CC(=O)NCCCCCNc6ccc7c(c6)C(=O)N(C6CCC(=O)NC6=O)C7=O)c5)c(C(F)F)cc43)nn2C2CCOCC2)C1 (stereo not shown) [P-019]	dose-dependently suppressed viability
3.3 nM	> 80%	CNC(=O)N1CCc2c(c(N3CCCc4cc(-c5cnn(CC(=O)NCCCCCCNc6ccc7c(c6)C(=O)N(C6CCC(=O)NC6=O)C7=O)c5)c(C(F)F)cc43)nn2C2CCOCC2)C1 (stereo not shown) [P-020]	
278 nM	< 20%	CNC(=O)N1CCc2c(c(N3CCCc4cc(-c5cnn(CC(=O)NCCOCCNc6cccc7c6C(=O)N(C6CCC(=O)NC6=O)C7=O)c5)c(C(F)F)cc43)nn2C2CCOCC2)C1 (stereo not shown) [P-021]	
389 nM	< 20%	CNC(=O)N1CCc2c(c(N3CCCc4cc(-c5cnn(CC(=O)NCCOCCOCCNc6cccc7c6C(=O)N(C6CCC(=O)NC6=O)C7=O)c5)c(C(F)F)cc43)nn2C2CCOCC2)C1 (stereo not shown) [P-022, 3-(7-(Difluoromethyl)-6-(1-(2-((2-(2-(2-((2-(2,6-dioxopiperidin-3-yl)-1,3-dioxoisoindolin-4-yl)amino)ethoxy)ethoxy)ethyl)amino)-2-oxoethyl)-1H-pyrazol-4-yl)-3,4-dihydroquinolin-1(2H)-yl)-N-methyl-1-(tetrahydro-2H-pyran-4-yl)-1,4,6,7-tetrahydro-5H-pyrazolo[4,3-c]pyridine-5-carboxamide]	
357 nM	< 20%	CNC(=O)N1CCc2c(c(N3CCCc4cc(-c5cnn(CC(=O)NCCOCCOCCOCCNc6cccc7c6C(=O)N(C6CCC(=O)NC6=O)C7=O)c5)c(C(F)F)cc43)nn2C2CCOCC2)C1 (stereo not shown) [P-023, 3-(7-(Difluoromethyl)-6-(1-(14-((2-(2,6-dioxopiperidin-3-yl)-1,3-dioxoisoindolin-4-yl)amino)-2-oxo-6,9,12-trioxa-3-azatetradecyl)-1H-pyrazol-4-yl)-3,4-dihydroquinolin-1(2H)-yl)-N-methyl-1-(tetrahydro-2H-pyran-4-yl)-1,4,6,7-tetrahydro-5H-pyrazolo[4,3-c]pyridine-5-carboxamide]	
524 nM	< 20%	CNC(=O)N1CCc2c(c(N3CCCc4cc(-c5cnn(CC(=O)NCCOCCOCCOCCOCCNc6cccc7c6C(=O)N(C6CCC(=O)NC6=O)C7=O)c5)c(C(F)F)cc43)nn2C2CCOCC2)C1 (stereo not shown) [P-024, 3-(7-(Difluoromethyl)-6-(1-(17-((2-(2,6-dioxopiperidin-3-yl)-1,3-dioxoisoindolin-4-yl)amino)-2-oxo-6,9,12,15-tetraoxa-3-azaheptadecyl)-1H-pyrazol-4-yl)-3,4-dihydroquinolin-1(2H)-yl)-N-methyl-1-(tetrahydro-2H-pyran-4-yl)-1,4,6,7-tetrahydro-5H-pyrazolo[4,3-c]pyridine-5-carboxamide]	
1250 nM	< 20%	CNC(=O)N1CCc2c(c(N3CCCc4cc(-c5cnn(CC(=O)NCCOCCOCCOCCOCCOCCNc6cccc7c6C(=O)N(C6CCC(=O)NC6=O)C7=O)c5)c(C(F)F)cc43)nn2C2CCOCC2)C1 (stereo not shown) [P-025, 3-(7-(Difluoromethyl)-6-(1-(20-((2-(2,6-dioxopiperidin-3-yl)-1,3-dioxoisoindolin-4-yl)amino)-2-oxo-6,9,12,15,18-pentaoxa-3-azaicosyl)-1H-pyrazol-4-yl)-3,4-dihydroquinolin-1(2H)-yl)-N-methyl-1-(tetrahydro-2H-pyran-4-yl)-1,4,6,7-tetrahydro-5H-pyrazolo[4,3-c]pyridine-5-carboxamide]	
